# Legend:
# Assay type in all cases: in vivo
# serum glucose = experiment: Determination of serum glucose (ortho-toluidine method) in Alloxan-induced Diabetes Mellitus; settings: 20 days after Alloxan, before starting the treatment with the Silymarin and Carbopol compound
# Procedure: (§1) The treatment of the Silymarin and Carbopol combined with Alloxan was done in two ways. In the first case, a dose of 200 mg/Kg of the Silymarin and Carbopol compound was administered orally at 6, 24 and 48 hours (two days) after the first dose. In the second case, in addition to the dose mentioned in the first case, the administration was prolonged every 24 hours after the first dose for five more days (seven days). In both cases, the dose of Alloxan was 150 mg/Kg, which was administered subcutaneously one hour after the first dose of the Silymarin and Carbopol compound.
# The determination of blood glucose was carried out by the Baner method. This consisted in taking 50 μl of serum to which 3.0 ml of ortho-toluidine reagent were added which reacts with aldohexoses and forms […] and a Schiff base, the green color developed has a maximum absorption at 620 nm and is proportional to the quantity of glucose present.
# In the case of the combined administration of the Silymarin and Carbopol compound with Alloxan, the determination of serum glucose was done before the administration of the drugs and at 3, 5, 15 and 30 days after the treatment. […]
# pancreatic tissue = experiment: Histopathological analysis of the pancreatic tissue (HE staining); settings: treatment with Alloxan only
# Procedure: as §1
# This analysis was done in transversal fragments of pancreas approximately 0.7 cm long corresponding to the head of the organ. Subsequently, by the paraffin embedding technique, 5 μm sections where then obtained, which were stained with the dyes hematoxylin and eosin (HE). This technique consists in: 1) dehydration of the tissue, which is done by passing the tissue through different concentration of alcohol (from 25 to 100%) and then to an alcohol-toluene, toluene-paraffin and paraffin mixture. Once the tissues are dehydrated, blocks are formed with paraffin. 2) Sectioning of the tissue. This is done in a microtome, which is adjusted to the right section thickness of 4 to 6 μm and is placed in a slide. 3) Staining of the sections. This was done with the dyes hematoxylin and eosin. […]
# islets of Langerhans = experiment: Immunohistochemical analysis for insulin and glucagon in the islets of Langerhans by confocal microscopy; settings: treatment with Alloxan only (FIG. 1)
# Procedure: as §1
# This analysis is carried out on sections of pancreatic tissue (corresponding to the head of the pancreas). Once the sections have been obtained (described in example 3) they are placed on a slide and the tissue is then deparaffinated and rehydrated. It is begun in pure xylol, with two changes of 10 minutes each. The samples are then passed to a mixture of ethanol-xylol for 10 minutes and afterward to alcohols of different percentages: 100, 90, 80 and 70% for five minutes each. […] At the end of this time, they are flushed with PBS and incubated in a mixture of secondary antibodies coupled with fluorochromes, fluorescein and rhodamine, for one hour at ambient temperature and they are then mounted in a specific medium to preserve the fluorescence. The samples are analyzed by confocal microscopy. […]
# glutathione peroxidase = experiment: Activity of pancreatic antioxidant enzymes: glutathione peroxidase; settings: pancreas; Alloxan (20 days after its administration)
# Procedure: (§2) A determination was made of the pancreatic activity of the antioxidant enzymes: superoxide dismutase, glutathione peroxidase and catalase. To do such determination, the pancreas was weighed, it was homogenized with a phosphate buffer 50 mM, it was centrifuged at 3000 rpm, and the supernatant was separated. The activities of the aforementioned enzymes was determined in this.
# Glutathione peroxidase.—This quantification was done by the method of Prasad et al. (1992). This enzyme catalyzes the breakdown of H2O2 by the NADPH. Its activity is measured by the velocity of absorbance change during the conversion of NADPH to NADP^+ and this may be spectrophotometrically registered at […].
# superoxide dismutase = experiment: Activity of pancreatic antioxidant enzymes: superoxide dismutase; settings: pancreas; Alloxan (20 days after its administration)
# Procedure: as §2
# Superoxide dismutase.—This quantification was done by the method of Prasad et al. (1992). Superoxide ions are formed by xanthine and xanthine oxidase. These ions react with the tetrazolium blue and they form a colour compound that can be spectrophotometrically quantified at 560 nm. A unit of superoxide dismutase can inhibit the formation of this compound by 50%.
# catalase = experiment: Activity of pancreatic antioxidant enzymes: catalase; settings: pancreas; Alloxan (20 days after its administration)
# Procedure: as §2
# Catalase.—This quantification was carried out by the Aebi method (1995). This enzyme catalyzes the breakdown of H2O2 and the decomposition velocity of the oxygenated water is measured spectrophotometrically at 240 nm.
smiles,measurement,setting,value
O=C1NC(=O)C(=O)C(=O)N1 [Alloxan],serum glucose concentration above the normal value,serum glucose,approximately 400%
same,histopathology of the pancreatic tissue,pancreatic tissue,cellular disorganization with loss of the islets of Langerhans
same,"pancreatic islet, insulin and glucagon immunostaining",islets of Langerhans,destruction occurred of the pancreatic islet
same,Enzymatic activity Glutathione Peroxidase,glutathione peroxidase,0.016 ± .002 μM NADPH/min/mg prot
same,Enzymatic activity Superoxide Dismutase,superoxide dismutase,4.3 ± 0.02 U/mg protein.
same,Enzymatic activity Catalase,catalase,0.01 ± 0.002 k/sec/mg of protein

# — patent publication US8506997B2, “Pharmaceutical compound containing silymarin and carbopol, its manufacturing process and its use as a regenerator of the pancreatic tissue and cells of endogenous secretion damaged by diabetes mellitus” (Universidad Autonoma Metropolitana, priority 2002, dated 2013)
